Experimental data reported in PubChem BioAssay (NCI).
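Exposure lasted 48 hours, with cells grown in 96-well plates and compounds tested at five concentrations. Abbreviation: GI50, concentration required for 50% inhibition of growth. The concentration for full growth arrest is given as TGI.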

Experiments:
Assay in all cases: NCI-60 cell line screen, 48 h
[1] = test system: A549 NSCLC
[2] = test system: HCT-116 colon
[3] = test system: HL-60(TB) leukemia
[4] = test system: HOP-92 NSCLC
[5] = test system: M14 melanoma
[6] = test system: MOLT-4 leukemia
[7] = test system: OVCAR-4 ovarian
[8] = test system: RPMI-8226 leukemia
[9] = test system: SW-620 colon
[10] = test system: UO-31 renal

SMILES: CN1CCN(Cc2ccc(NC(=O)c3cncc(C#Cc4cnc(N)c5ccccc45)c3)cc2C(F)(F)F)CC1
- GI50 [1]: 0.342 µM
- TGI [1]: 0.93 µM
- GI50 [2]: 0.16 µM
- TGI [2]: 0.581 µM
- GI50 [3]: 0.165 µM
- TGI [3]: 0.665 µM
- GI50 [4]: 0.401 µM
- TGI [4]: 1.25 µM
- GI50 [5]: 0.133 µM
- TGI [5]: 0.551 µM
- GI50 [6]: 0.164 µM
- TGI [6]: 1.16 µM
- GI50 [7]: 0.117 µM
- TGI [7]: 0.738 µM
- GI50 [8]: 0.441 µM
- TGI [8]: 1.41 µM
- GI50 [9]: 0.125 µM
- TGI [9]: 0.421 µM
- GI50 [10]: 0.436 µM
- TGI [10]: 0.869 µM

SMILES: N#Cc1c(O)c2c(c(O)c1C#N)C(=O)c1ccccc1C2=O
- GI50 [1]: 1.62 µM
- TGI [1]: 8.02 µM
- GI50 [2]: 1.3 µM
- TGI [2]: 2.94 µM
- GI50 [3]: 1.44 µM
- TGI [3]: 3.64 µM
- GI50 [4]: 2.2 µM
- TGI [4]: 5.92 µM
- GI50 [5]: 0.41 µM
- TGI [5]: 1.92 µM
- GI50 [6]: 2.07 µM
- TGI [6]: 5.07 µM
- GI50 [7]: 1.43 µM
- TGI [7]: 3.79 µM
- GI50 [8]: 1.42 µM
- TGI [8]: 4.67 µM
- GI50 [9]: 2.5 µM
- TGI [9]: 7.55 µM
- GI50 [10]: 2.3 µM
- TGI [10]: 9.81 µM

SMILES: CC1=C[C@@H]2Cc3occc3C(C)(C)[C@@H]2CC1
- TGI [1]: 49.6 µM
- TGI [2]: 33.7 µM
- TGI [3]: 39.1 µM
- TGI [4]: 38.9 µM
- TGI [5]: 47.1 µM
- TGI [6]: 39.4 µM
- TGI [7]: 84.4 µM
- TGI [9]: 31.8 µM
- TGI [10]: 33.8 µM

SMILES: CC(C)(C)C1=NC(S)NC(CCC(=O)Nc2ccccc2[N+](=O)[O-])=C1 (centres undefined)
- TGI [1]: > 100 µM
- TGI [2]: > 100 µM
- TGI [3]: > 100 µM
- TGI [4]: > 100 µM
- TGI [5]: > 100 µM
- TGI [6]: > 100 µM
- TGI [7]: > 100 µM
- TGI [9]: > 100 µM
- TGI [10]: > 100 µM

SMILES: O=[N+]([O-])c1ccc(NSc2ccccc2)cc1
- TGI [1]: > 100 µM
- TGI [2]: > 100 µM
- TGI [3]: 47.5 µM
- TGI [4]: > 100 µM
- TGI [5]: 64.5 µM
- TGI [6]: 49.4 µM
- TGI [9]: > 100 µM
- TGI [10]: > 100 µM

SMILES: CN(C)CCNc1nc2ccccc2c2[nH]c3ccccc3c12
- GI50 [1]: 0.37 µM
- TGI [1]: 10.1 µM
- GI50 [2]: 0.106 µM
- TGI [2]: 2.25 µM
- GI50 [3]: 1.55 µM
- TGI [3]: 3.77 µM
- GI50 [4]: 0.464 µM
- TGI [4]: 2.42 µM
- GI50 [5]: 0.41 µM
- TGI [5]: 1.71 µM
- GI50 [6]: 0.571 µM
- TGI [6]: 2.37 µM
- GI50 [8]: 0.648 µM
- TGI [8]: 1.97 µM
- GI50 [9]: 0.764 µM
- TGI [9]: 19.7 µM
- GI50 [10]: 1.01 µM
- TGI [10]: 13 µM

SMILES: CC1(C)N=C(N)N=C(N)N1c1ccc(CCCCc2ccc(S(=O)(=O)F)cc2Cl)c(Cl)c1
- TGI [1]: 200 µM
- TGI [2]: 140 µM
- TGI [3]: 11.6 µM
- TGI [4]: 48.6 µM
- TGI [5]: > 382 µM
- TGI [6]: 10.6 µM
- TGI [7]: > 468 µM
- TGI [9]: 360 µM
- TGI [10]: 224 µM

SMILES: Cc1nc2nnc(C)n2c2c1C(=O)Nc1ccccc1N2
- TGI [1]: > 100 µM
- TGI [2]: > 100 µM
- TGI [3]: > 100 µM
- TGI [4]: > 100 µM
- TGI [5]: > 100 µM
- TGI [6]: > 100 µM
- TGI [8]: > 100 µM
- TGI [9]: > 100 µM
- TGI [10]: > 100 µM

SMILES: O=C1NC(=O)C2C(=O)NC(=O)C1C2(c1ccccc1)c1ccc(Cl)cc1 (centres undefined)
- TGI [1]: > 100 µM
- TGI [3]: > 100 µM
- TGI [4]: > 100 µM
- TGI [5]: > 100 µM
- TGI [6]: > 100 µM
- TGI [7]: > 100 µM
- TGI [8]: > 100 µM
- TGI [9]: > 100 µM
- TGI [10]: > 100 µM

SMILES: N#Cc1nc(-c2ccc(F)cc2)oc1S(=O)(=O)N1CCOCC1
- GI50 [1]: 18.2 µM
- TGI [1]: 38.7 µM
- GI50 [2]: 1.28 µM
- TGI [2]: 3.07 µM
- GI50 [3]: 1.91 µM
- TGI [3]: 4.76 µM
- GI50 [4]: 2.66 µM
- TGI [4]: 9.48 µM
- GI50 [6]: 2.02 µM
- TGI [6]: 5.49 µM
- GI50 [7]: 3.08 µM
- TGI [7]: 10.2 µM
- GI50 [8]: 1.55 µM
- TGI [8]: 4.49 µM
- GI50 [9]: 1.57 µM
- TGI [9]: 3.24 µM
- GI50 [10]: 1.62 µM
- TGI [10]: 2.97 µM

SMILES: C[Si](C)(C)c1ccc(CC2(Cc3ccc([Si](C)(C)C)cc3)CCNC2)cc1
- TGI [1]: 5.22 µM
- TGI [2]: 3.17 µM
- TGI [3]: > 100 µM
- TGI [4]: 3.18 µM
- TGI [5]: 3.31 µM
- TGI [7]: 4.52 µM
- TGI [9]: 3.38 µM
- TGI [10]: 5.9 µM

SMILES: CCCNC(=O)OCc1c(COC(=O)NCCC)c(-c2ccc(Cl)c(Cl)c2)n2c1CCC2
- TGI [1]: 33.2 µM
- TGI [2]: 17.7 µM
- TGI [3]: 7.7 µM
- TGI [4]: 9.98 µM
- TGI [5]: 24.4 µM
- TGI [6]: 87.7 µM
- TGI [8]: 24.4 µM
- TGI [9]: 20.6 µM
- TGI [10]: 12.6 µM

SMILES: COc1cc2c(cc1OC)C1C=NC(C(=O)O)(C2)c2ccccc21 (centres undefined)
- TGI [1]: > 100 µM
- TGI [2]: > 100 µM
- TGI [3]: > 100 µM
- TGI [4]: > 100 µM
- TGI [5]: > 100 µM
- TGI [6]: > 100 µM
- TGI [7]: > 100 µM
- TGI [8]: > 100 µM
- TGI [9]: > 100 µM

SMILES: COc1ccc(CN2CCCC(C(=O)c3ccc(C(F)(F)F)cc3)C2)c(O)c1 (centres undefined)
- GI50 [1]: 36.4 µM
- TGI [1]: > 100 µM
- GI50 [2]: 21.2 µM
- TGI [2]: > 100 µM
- GI50 [3]: 24.9 µM
- TGI [3]: 62 µM
- GI50 [4]: 11.1 µM
- TGI [4]: 58 µM
- GI50 [6]: 27.5 µM
- TGI [6]: > 100 µM
- GI50 [7]: 29.2 µM
- TGI [7]: > 100 µM
- GI50 [8]: 22 µM
- TGI [8]: 62.4 µM
- GI50 [9]: 18.6 µM
- TGI [9]: 41.2 µM
- GI50 [10]: 14.4 µM
- TGI [10]: 59.6 µM

SMILES: CCOC(=O)CCCO
- TGI [1]: > 100 µM
- TGI [3]: > 100 µM
- TGI [4]: > 100 µM
- TGI [5]: > 100 µM
- TGI [6]: > 100 µM
- TGI [8]: > 100 µM
- TGI [9]: > 100 µM
- TGI [10]: > 100 µM

SMILES: OCc1c(-c2cccc3ccccc23)sc(-c2cccc3ccccc23)c1CO
- TGI [3]: 42.5 µM
- TGI [4]: 30.7 µM
- TGI [5]: 28.9 µM
- TGI [6]: 42.2 µM
- TGI [8]: 43.7 µM
- TGI [9]: 29.2 µM
- TGI [10]: 23.7 µM

SMILES: CN(C)S(=O)(=O)Nc1ccccn1
- TGI [1]: > 100 µM
- TGI [2]: > 100 µM
- TGI [3]: > 100 µM
- TGI [4]: > 100 µM
- TGI [5]: > 100 µM
- TGI [7]: > 100 µM
- TGI [8]: > 100 µM
- TGI [9]: > 100 µM
- TGI [10]: > 100 µM

SMILES: CN(C)c1ccc2c(c1)oc(=O)c1ccccc12
- TGI [1]: 34.6 µM
- TGI [2]: 25.9 µM
- TGI [3]: 20.3 µM
- TGI [4]: 30 µM
- TGI [5]: 26.5 µM
- TGI [6]: 73.3 µM
- TGI [7]: 28.2 µM
- TGI [8]: 28.8 µM
- TGI [9]: 23.4 µM

SMILES: Cc1c(N2C(=O)/C(=C\c3ccccc3O)N=C2c2ccccc2)c(=O)n(-c2ccccc2)n1C
- GI50 [1]: > 100 µM
- TGI [1]: > 100 µM
- GI50 [2]: 51.6 µM
- TGI [2]: > 100 µM
- GI50 [3]: > 100 µM
- TGI [3]: > 100 µM
- GI50 [4]: 17.6 µM
- TGI [4]: 68.4 µM
- GI50 [5]: > 100 µM
- TGI [5]: > 100 µM
- GI50 [7]: > 100 µM
- TGI [7]: > 100 µM
- GI50 [8]: > 100 µM
- TGI [8]: > 100 µM
- GI50 [9]: > 100 µM
- TGI [9]: > 100 µM
- GI50 [10]: > 100 µM
- TGI [10]: > 100 µM
